Each structure is given as a SMILES string. Marks after values point to notes of the source that are not given here.

One series has as its system hGCGR HFD/STZ mice. Nature of the series: Antihyperglycemic efficacy in hGCGR HFD/STZ mice (acute, chronic, combination with des-fluoro-sitagliptin). It counts as in vivo, hGCGR mouse. Particulars: GRA1 10 mg/kg, Des-F-sita 200 mg/kg. The source says: The present study made use of a line of hGCGR-expressing mouse (“hGCGR mouse”) generated previously by substituting the hGCGR gene for the mouse GCGR gene. These mice were crossed with C57BL/6J.ob/+ mice (Jackson Laboratories, Bar Harbor, ME) to obtain an hGCGR.ob/+ mouse line. The hGCGR.ob/+ mice were then intercrossed to obtain hGCGR.ob/ob, hGCGR.ob/+, and hGCGR.+/+ mice (with the hGCGR.ob/+ and hGCGR.+/+ mice serving as littermate controls). […] obese (DIO) hGCGR mice were generated by maintaining hGCGR mice on a high-fat diet (HFD) in which 45–60% of calories were in fat (Product S3282, Bio-Serv, Frenchtown, NJ). High-fat-diet-streptozotocin-treated (HFD/STZ) diabetic mice were generated in-house as previously described.
Acute glucose lowering was studied in non-fasted hGCGR.ob/ob mice and HFD/STZ mice administered single doses p.o. of 1, 3 and 10 mg/kg GRA1 in 10 mL/kg 0.5% aqueous methylcellulose. Animals were fasted during the interval between dosing and the final blood glucose measurement. Glucose was measured in blood from tail bleeds using a OneTouch glucometer. In the experiments with hGCGR HFD/STZ mice, treatment groups were matched with respect to body weight and blood glucose levels.
Animals were dosed chronically with GRA1 and the DPP-4 inhibitor des-fluoro-sitagliptin by administering these agents as food admixtures. The admixtures were prepared in-house and by Research Diets (New Brunswick, NJ), with drug concentrations adjusted weekly on the basis of average food consumption and animal weight to provide targeted daily doses. In the GRA1 experiments, the targeted doses were 3, 6, 10, and 30 mg/kg•day. In des-fluoro-sitagliptin experiments, the targeted dose was 200 mg/kg•day, a relatively high amount necessary because this compound has a half-life in rodents of 1–2 h.
Plasma glucagon and active GLP-1 were measured using commercial ELISA kits (Linco Research Immunoassay, St. Charles, MO). […] Plasma insulin was determined by ELISA with a commercial kit (ALPCO Diagnostics, Windham, NH). Plasma concentrations of glycated hemoglobin A1c (HbA1c) were measured using a Micromat II test kit from Bio-Rad Laboratories (Hercules, CA). Total cholesterol, low-density lipoprotein cholesterol (LDL-c) and non-LDL-c, and aspartate aminotransferase were measured using a Roche P Modular Clinical Chemistry analyzer (Indianapolis, IN).
Figure 5 GRA1 lowers glucose in hGCGR HFD/STZ mice and further enhances the efficacy of a DPP-4 inhibitor. (A) Mean (±SEM) blood glucose hGCGR HFD/STZ mice treated with a single dose of 1, 3, or 10 mg/kg GRA1. (B) Non-fasted blood glucose concentrations in hGCGR HFD/STZ mice treated for 6 weeks with 10 mg/kg·day GRA1, 200 mg/kg·day des-fluoro-sitagliptin (des-F-sita), or the two agents in combination. (Additional data from this study are in Table 4.) *p<0.05, **p<0.01, and ***p<0.001 versus HFD/STZ controls; ^#non-significant (p>0.05) versus non-STZ controls; n = 8–15 animals per group.

On the set-up of series [1]: method as in PMID 16731832. Particulars: cited from earlier work.
For a further series, the system named is humans. The arrangement: method as in earlier work. Particulars: clinical studies in humans, MK-0893 combined with the DPP-4 inhibitor sitagliptin; cited from earlier work.

Regarding `N[C@@H](CC(=O)N1CCn2c(nnc2C(F)(F)F)C1)Cc1cc(F)ccc1F` [Des-F-sita, 7-[(3R)-3-amino-1-oxo-4-(2,5-difluorophenyl)butyl]-5,6,7,8-tetrahydro-3-(trifluoromethyl)-1,2,4-triazolo[4,3-α]pyrazine, reference compound], in the series with hGCGR HFD/STZ mice (5 weeks of treatment, control diet 6.1±0.4), the HbA1c stood at 5.0±0.4%. Also, in the series on hGCGR HFD/STZ mice (5 weeks of treatment, control diet 323±33), the “6-h fasting blood glucose” value was found to be 283 ± 34 mg/dL. Also, the “Liver Triglyceride” value in the series on hGCGR HFD/STZ mice (6 weeks, necropsy tissue, control diet 143±10) was 94±15* µg/mg. Moreover, in the series on hGCGR HFD/STZ mice (6 weeks, terminal plasma, control diet 1.4±0.2), the Free fatty acid came to 1.1 ± 0.1 mM. Moreover, the “Active GLP-1” value in the series on hGCGR HFD/STZ mice (6 weeks, terminal plasma, control diet 2.5±0.1) was determined as 2.9 ± 0.2 pM. Besides, the “Inactive GLP-1” value in the series on hGCGR HFD/STZ mice (6 weeks, terminal plasma, control diet 8.1±1.1) is recorded as 3.2±0.2*** pM. The Plasma glucagon in the series with hGCGR HFD/STZ mice (6 weeks, terminal plasma, control diet 133±21) amounted to 87 ± 4 pg/mL. The Triglyceride with hGCGR HFD/STZ mice (6 weeks, terminal plasma, control diet 184±26) amounted to 161 ± 15 mg/dL. The Half-life in rodents in series [1] was 1 to 2 h.

In the case of `COc1ccc2cc(-c3cc(-c4cc(Cl)cc(Cl)c4)nn3[C@@H](C)c3ccc(C(=O)NCCC(=O)O)cc3)ccc2c1` [MK-0893, N-[(4-{(1S)-1-[3-(3,5-Dichlorophenyl)-5-(6-methoxynaphthalen-2-yl)-1H-pyrazol-1-yl]ethyl}phenyl)carbonyl]-beta-alanine], in the series with humans, the “Glucose-lowering efficacy of combination with sitagliptin” value is reported as “did not result in significant additional glucose-lowering efficacy”.

Values taken from PMC3501516, “Anti-Diabetic Efficacy and Impact on Amino Acid Metabolism of GRA1, a Novel Small-Molecule Glucagon Receptor Antagonist” (PLoS ONE, 2012).
